Experimental data as given in patent US20230131025A1, “QUINOLYL PHOSPHINE OXIDE COMPOUND, AND COMPOSITION AND APPLICATION THEREOF” (Betta Pharmaceuticals Co., Ltd., priority 2020, published 2023).

Columns and labels:
EGFR WT = EGFR WT (Homo sapiens, UniProt P00533); test: Kinase inhibition assay (mobility shift); assay type: biochemical
Method in brief: (§1)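 Caliper mobility-shift read of substrate conversion after kinase-compound preincubation 10 min at room temperature, then ATP/substrate addition and reaction at room temperature. Ten-point 3-fold dilutions from 3,000 or 100 nM top; IC50 from variable-slope four-parameter fit of percent inhibition.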

EGFR Δ19del/T790M/C797S = EGFR Δ19del/T790M/C797S (Homo sapiens, UniProt P00533, T790M/C797S, form not given); test: Kinase inhibition assay (mobility shift); assay type: biochemical
Chain of EGFR Δ19del/T790M/C797S (P00533 with tags, fused parts or gaps DEL746-750/T790M/C797S, form open): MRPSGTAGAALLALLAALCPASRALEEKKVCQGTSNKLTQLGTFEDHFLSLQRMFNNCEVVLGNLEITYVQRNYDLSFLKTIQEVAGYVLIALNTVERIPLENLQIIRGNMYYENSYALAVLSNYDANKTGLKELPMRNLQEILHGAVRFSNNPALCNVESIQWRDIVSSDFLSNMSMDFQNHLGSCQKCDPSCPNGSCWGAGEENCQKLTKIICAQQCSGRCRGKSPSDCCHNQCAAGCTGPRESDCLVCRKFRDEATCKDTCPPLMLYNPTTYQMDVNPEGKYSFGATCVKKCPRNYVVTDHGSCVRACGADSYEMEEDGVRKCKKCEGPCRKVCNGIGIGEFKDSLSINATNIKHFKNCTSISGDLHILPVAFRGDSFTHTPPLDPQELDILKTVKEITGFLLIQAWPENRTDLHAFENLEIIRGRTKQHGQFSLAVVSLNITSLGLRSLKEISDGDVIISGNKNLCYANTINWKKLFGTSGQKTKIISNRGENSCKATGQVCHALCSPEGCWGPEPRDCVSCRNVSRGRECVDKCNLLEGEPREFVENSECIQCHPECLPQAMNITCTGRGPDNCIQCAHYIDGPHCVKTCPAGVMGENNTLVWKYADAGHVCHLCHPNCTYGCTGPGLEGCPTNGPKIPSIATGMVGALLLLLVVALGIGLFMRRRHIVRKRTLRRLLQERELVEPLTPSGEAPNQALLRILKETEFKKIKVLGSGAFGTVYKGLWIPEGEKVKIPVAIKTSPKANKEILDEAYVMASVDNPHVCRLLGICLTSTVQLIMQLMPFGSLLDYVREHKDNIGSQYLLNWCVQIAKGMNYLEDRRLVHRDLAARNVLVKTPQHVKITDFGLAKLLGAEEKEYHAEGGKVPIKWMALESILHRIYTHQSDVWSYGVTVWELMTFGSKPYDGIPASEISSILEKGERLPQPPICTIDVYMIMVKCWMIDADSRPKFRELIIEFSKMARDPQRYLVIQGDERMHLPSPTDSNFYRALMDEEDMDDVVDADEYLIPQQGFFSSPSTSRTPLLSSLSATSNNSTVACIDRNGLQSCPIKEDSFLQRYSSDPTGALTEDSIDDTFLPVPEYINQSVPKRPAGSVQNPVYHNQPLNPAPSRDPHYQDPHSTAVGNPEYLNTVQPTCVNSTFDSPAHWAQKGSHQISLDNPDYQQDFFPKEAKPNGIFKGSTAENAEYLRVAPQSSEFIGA
Method in brief: as §1

IGF1R = IGF1R (Homo sapiens, UniProt P08069); test: Kinase inhibition assay (mobility shift); assay type: biochemical
Chain of IGF1R (P08069 31-1367, species assumed): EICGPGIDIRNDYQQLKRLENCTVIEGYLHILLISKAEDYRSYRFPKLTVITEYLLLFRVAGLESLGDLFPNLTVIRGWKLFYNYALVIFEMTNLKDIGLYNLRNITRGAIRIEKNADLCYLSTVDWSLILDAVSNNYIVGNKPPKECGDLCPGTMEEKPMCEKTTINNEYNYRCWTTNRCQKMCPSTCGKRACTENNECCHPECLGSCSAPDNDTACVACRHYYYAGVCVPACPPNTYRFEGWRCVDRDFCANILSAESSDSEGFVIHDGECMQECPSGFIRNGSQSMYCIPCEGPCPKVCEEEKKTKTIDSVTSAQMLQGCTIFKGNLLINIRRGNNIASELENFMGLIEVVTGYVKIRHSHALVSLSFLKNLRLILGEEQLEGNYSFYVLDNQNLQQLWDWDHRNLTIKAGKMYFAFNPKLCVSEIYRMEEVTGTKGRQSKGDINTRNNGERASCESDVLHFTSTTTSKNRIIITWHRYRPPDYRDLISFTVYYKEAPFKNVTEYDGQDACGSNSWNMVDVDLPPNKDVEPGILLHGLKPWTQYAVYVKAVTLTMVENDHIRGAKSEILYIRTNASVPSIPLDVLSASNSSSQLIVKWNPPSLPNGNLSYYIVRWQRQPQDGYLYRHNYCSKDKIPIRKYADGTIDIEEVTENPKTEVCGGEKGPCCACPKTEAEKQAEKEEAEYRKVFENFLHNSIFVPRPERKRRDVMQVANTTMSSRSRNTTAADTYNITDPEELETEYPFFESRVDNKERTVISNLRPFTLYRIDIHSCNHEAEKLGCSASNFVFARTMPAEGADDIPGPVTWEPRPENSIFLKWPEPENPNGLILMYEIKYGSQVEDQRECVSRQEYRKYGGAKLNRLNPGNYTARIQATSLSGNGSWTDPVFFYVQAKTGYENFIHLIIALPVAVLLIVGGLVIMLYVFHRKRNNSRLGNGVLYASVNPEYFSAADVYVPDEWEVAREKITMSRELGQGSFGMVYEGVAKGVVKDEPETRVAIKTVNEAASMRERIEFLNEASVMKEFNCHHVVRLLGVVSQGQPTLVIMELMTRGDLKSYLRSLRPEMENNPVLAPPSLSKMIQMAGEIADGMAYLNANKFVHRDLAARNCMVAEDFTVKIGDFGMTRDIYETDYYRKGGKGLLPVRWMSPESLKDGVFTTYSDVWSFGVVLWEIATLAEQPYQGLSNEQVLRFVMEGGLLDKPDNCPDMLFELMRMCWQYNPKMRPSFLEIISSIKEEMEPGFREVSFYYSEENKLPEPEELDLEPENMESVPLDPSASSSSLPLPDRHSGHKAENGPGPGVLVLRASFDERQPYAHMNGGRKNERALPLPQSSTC
Method in brief: as §1

[1] = tested on: Ba/F3-Δ19del/T790M/C797S-derived xenograft (CDX); test: In vivo efficacy experiment, xenograft tumor growth; design: species or system BALB/c nude mice
Method: In vivo efficacy experiments were performed on Ba/F3-Δ19del/T790M/C797S-derived xenograft (CDX) BALB/c nude mice. […] They were fed in an SPF environment, with each cage individually ventilated (6 mice per cage). […] Each mouse was subcutaneously inoculated with 0.1 mL cells (5×10^6 cells, the volume ratio of matrigel to cell was 1:1) on the right upper limb. When the tumor volume was about 150 mm^3, the grouped mice were separately administered with compound J-022 (10 mg/kg, 100 mg/kg, 150 mg/kg) orally QD for 15 consecutive days. Tumor diameters were measured with vernier calipers twice a week. The volume of tumor is calculated as: V=0.5a×b^2, wherein a and b represent the long diameter and short diameter of the tumor, respectively. The tumor growth inhibition rate TGI (%) was calculated to evaluate the tumor inhibitory effect of the compounds. TGI (%) was calculated with the following formula: TGI (%)=(1−(the average tumor volume of the compound treatment group at the end of the administration−the average tumor volume of the compound treatment group at the beginning of the administration)/(the average tumor volume of the solvent control group at the end of treatment−the average tumor volume of the solvent control group at the beginning of treatment))×100%.

[2] = In vivo safety experiment (body weight, tolerance)
Method: The safety evaluation of the drug was carried out in BALB/c nude mice. […] They were fed in an SPF environment, and each cage was individually ventilated (5 mice per cage). All cages, bedding and water were disinfected prior to use. Mice were purchased from Viton Lever and were allowed to acclimate in the laboratory. Mice were administered orally QD.

Chain of EGFR WT (P00533 25-1210): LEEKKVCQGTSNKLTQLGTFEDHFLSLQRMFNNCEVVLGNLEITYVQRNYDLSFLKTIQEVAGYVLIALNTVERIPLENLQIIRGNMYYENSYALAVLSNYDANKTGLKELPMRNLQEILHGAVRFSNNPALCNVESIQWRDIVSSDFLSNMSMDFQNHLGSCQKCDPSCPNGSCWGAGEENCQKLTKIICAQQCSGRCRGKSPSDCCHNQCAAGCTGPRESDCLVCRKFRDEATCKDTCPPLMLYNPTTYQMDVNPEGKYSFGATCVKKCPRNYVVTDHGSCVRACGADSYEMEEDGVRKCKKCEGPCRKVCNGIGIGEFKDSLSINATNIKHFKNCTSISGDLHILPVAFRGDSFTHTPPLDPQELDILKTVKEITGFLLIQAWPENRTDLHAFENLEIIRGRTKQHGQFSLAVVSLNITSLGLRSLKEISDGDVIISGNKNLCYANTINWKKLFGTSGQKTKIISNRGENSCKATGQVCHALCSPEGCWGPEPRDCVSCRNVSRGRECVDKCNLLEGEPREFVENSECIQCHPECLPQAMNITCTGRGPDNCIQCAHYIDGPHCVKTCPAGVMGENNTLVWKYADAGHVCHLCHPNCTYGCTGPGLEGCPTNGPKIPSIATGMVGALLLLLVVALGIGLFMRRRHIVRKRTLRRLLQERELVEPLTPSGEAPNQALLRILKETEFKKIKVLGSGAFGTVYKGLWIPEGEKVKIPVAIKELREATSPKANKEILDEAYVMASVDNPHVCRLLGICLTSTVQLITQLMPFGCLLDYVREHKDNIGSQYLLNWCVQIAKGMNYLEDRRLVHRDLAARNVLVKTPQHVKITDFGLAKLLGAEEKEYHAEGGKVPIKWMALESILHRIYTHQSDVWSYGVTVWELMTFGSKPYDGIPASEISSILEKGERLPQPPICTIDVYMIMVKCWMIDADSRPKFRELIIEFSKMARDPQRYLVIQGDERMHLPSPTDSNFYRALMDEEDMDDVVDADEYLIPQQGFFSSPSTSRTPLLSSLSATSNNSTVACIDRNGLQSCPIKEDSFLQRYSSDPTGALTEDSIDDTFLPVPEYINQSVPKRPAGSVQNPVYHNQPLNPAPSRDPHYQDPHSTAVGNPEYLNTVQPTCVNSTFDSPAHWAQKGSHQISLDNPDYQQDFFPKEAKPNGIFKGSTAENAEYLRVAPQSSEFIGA

For `COc1cc(N2CCC(N3CCN(C)CC3)CC2)c(C)cc1Nc1ncc(Br)c(Nc2ccc3nc(C4CC4)ccc3c2P(C)(C)=O)n1` [Compound J-022, (6-((5-Bromo-2-((2-methoxy-5-methyl-4-(4-(4-methylpiperazin-1-yl)piperidin-1-yl)phenyl)amino)pyrimidin-4-yl)amino)-2-cyclopropylquinolin-5-yl)dimethylphosphine oxide], which IC50 (EGFR WT) is on record?
The IC50 was 20.2 nM.

And the IC50 (EGFR Δ19del/T790M/C797S)?
Its IC50 is 0.3 nM.

And the IC50 (IGF1R)?
The IC50 was 195 nM.

And the Tumor volume ([1]; 10 mg/kg/day oral QD, 0 day)?
Its Tumor volume is 152 mm^3.

And the “15 day TGI %” value ([1]; 10 mg/kg/day oral QD, 15 consecutive days)?
Its value is 53%.

And the Tumor volume ([1]; 10 mg/kg/day oral QD, 3 day)?
Its Tumor volume is 183 mm^3.

And the Tumor volume ([1]; 10 mg/kg/day oral QD, 7 day)?
Its Tumor volume is 321 mm^3.

What about the Tumor volume ([1]; 10 mg/kg/day oral QD, 10 day) of the same compound?
Its Tumor volume is 747 mm^3.

And the Tumor volume ([1]; 10 mg/kg/day oral QD, 15 day)?
The Tumor volume was 1650 mm^3.

What about the Tumor regression ([1]; 100 mg/kg/day or 150 mg/kg/day, 15 consecutive days) of the same compound?
The Tumor regression was “tumor completely regressed”.

And the Tumor volume ([1]; 100 mg/kg/day oral QD, 0 day)?
The Tumor volume was 151 mm^3.

What about the “15 day TGI %” value ([1]; 100 mg/kg/day oral QD, 15 consecutive days) of the same compound?
Its value is 105%.

What about the Tumor volume ([1]; 100 mg/kg/day oral QD, 3 day) of the same compound?
Its Tumor volume is 99 mm^3.

And the Tumor volume ([1]; 100 mg/kg/day oral QD, 7 day)?
Its Tumor volume is 59 mm^3.

What about the Tumor volume ([1]; 100 mg/kg/day oral QD, 10 day) of the same compound?
The Tumor volume was 0 mm^3.

What about the Tumor volume ([1]; 100 mg/kg/day oral QD, 15 day) of the same compound?
The Tumor volume was 0 mm^3.

What about the Tumor volume ([1]; 150 mg/kg/day oral QD, 0 day) of the same compound?
Its Tumor volume is 152 mm^3.

What about the “15 day TGI %” value ([1]; 150 mg/kg/day oral QD, 15 consecutive days) of the same compound?
The value was 105%.

What about the Tumor volume ([1]; 150 mg/kg/day oral QD, 3 day) of the same compound?
Its Tumor volume is 102 mm^3.

What about the Tumor volume ([1]; 150 mg/kg/day oral QD, 7 day) of the same compound?
Its Tumor volume is 4 mm^3.

And the Tumor volume ([1]; 150 mg/kg/day oral QD, 10 day)?
The Tumor volume was 0 mm^3.

And the Tumor volume ([1]; 150 mg/kg/day oral QD, 15 day)?
The Tumor volume was 0 mm^3.

What about the half effective dose ([1]; dose with TGI 53%) of the same compound?
Its half effective dose is 10 mg/kg/day.

What about the “Body weight of mouse” value ([2]; 75 mg/kg/day oral QD, 0 days) of the same compound?
Its value is 18.7 g.

What about the “Body weight of mouse” value ([2]; 75 mg/kg/day oral QD, 2 days) of the same compound?
The value was 18.9 g.

What about the “Body weight of mouse” value ([2]; 75 mg/kg/day oral QD, 4 days) of the same compound?
Its value is 19.2 g.

What about the “Body weight of mouse” value ([2]; 75 mg/kg/day oral QD, 6 days) of the same compound?
Its value is 19.4 g.

And the “Body weight of mouse” value ([2]; 100 mg/kg/day oral QD, 0 days)?
The value was 18.7 g.

And the “Body weight of mouse” value ([2]; 100 mg/kg/day oral QD, 2 days)?
The value was 18.6 g.

And the “Body weight of mouse” value ([2]; 100 mg/kg/day oral QD, 4 days)?
The value was 19.0 g.

What about the “Body weight of mouse” value ([2]; 100 mg/kg/day oral QD, 6 days) of the same compound?
The value was 19.2 g.

What about the “Body weight of mouse” value ([2]; 150 mg/kg/day oral QD, 0 days) of the same compound?
Its value is 18.7 g.

What about the “Body weight of mouse” value ([2]; 150 mg/kg/day oral QD, 2 days) of the same compound?
Its value is 18.3 g.

What about the “Body weight of mouse” value ([2]; 150 mg/kg/day oral QD, 4 days) of the same compound?
Its value is 18.5 g.

What about the “Body weight of mouse” value ([2]; 150 mg/kg/day oral QD, 6 days) of the same compound?
The value was 18.4 g.

And the “Change in the body weight of mice” value ([2]; 150 mg/kg/day oral, 7 days)?
The value was “no significant change”.

What about the Tolerability ([2]; 150 mg/kg/day, 7 days) of the same compound?
Its Tolerability is “tolerable”.

And the “window from the effective dose to the intolerance dose” value ([2]; effective dose = dose corresponding to 50% TGI)?
Its value is “greater than 15 times”.
